“Also recorded” adds a separate entry of the source.
Assays:
C57B1/6J mice = assay: Antibody response in sera of immunized C57B1/6J mice, fluorescence ELISA for anti-TR3 binding antibodies; format: in vivo, mouse; conditions: immune sera collected after four weeks
Experimental: C57B1/6J mice were immunized with the native TR3 peptide 1-32 or with an altered TR3 sequence that contains a Threonine (T) to Phenylalanine (F) alteration at amino acid position 4 to introduce a known C57B1/6J MHC Class II binding motif. Immune sera were collected after four weeks and assessed for anti-TR3 binding antibodies by fluorescence ELISA.
(§1) The serum from rats immunized with TR3 peptide 1-32 were tested in a standard ELISA for epitope specificity. The protocol for ELISA has been described previously in (Tittle, Molecular Immunology 26:343-350, 1989), except that the substrate (methylumbelliferyl phosphate, MUP, Sigma-Aldrich, St. Louis, Mo.) was read fluorometrically rather than calorimetrically as with NPP (Nitrophenyl phosphate).
A T to F change in the sequence of TR3 at AA4 an H-2^b binding motif was generated and C57B1/6J mice were immunized with the native TR3 peptide or with the T-F variant peptide.

Lewis rats = assay: Antibody response in sera of immunized Lewis rats, fluorescence ELISA on TR3 peptide coated plates; format: in vivo, Lewis rat; conditions: bled after six weeks; for antibody titer against TR3 peptide 1-32 in sera of rats immunized with the peptide: TR31-32 coated plates, before and after immunization
Experimental: Rats were immunized and rested for four weeks. Immune sera were assayed at 1:5000 and compared to pre-immune titers by fluorescence ELISA (see below) using TR3 peptide 1-32 coated plates.
Lewis rats were immunized with TR3 peptide 1-13 and after six weeks the animals were bled and sera tested for binding to TR31-13 or TR31-32 coated plates using fluorescence ELISA.
(§2) Two peptides were synthesized, TR3 peptide 1-13 and TR3 peptide 1-32. Both contain the binding motif but only one was long enough to have a portion hanging outside of the MHC Class II binding cleft. Lewis rats were immunized with one or the other of these peptides and sera tested for the presence of antibodies that would recognize the TR31-32 peptide before and after immunization.
as §1

[1] = test system: Lymph node T cells from TR3 peptide 1-13 immune animals; assay: Standard T cell proliferation assay (3H-thymidine incorporation); format: cell-based, Lewis rat; conditions: T cells from TR3 peptide 1-13 immune Lewis rats with antigen presenting cells; after 48 hours in culture, 18 hour period
Experimental: Lymph node T cells from TR3 peptide 1-13 immune animals were cultured in the presence of antigen presenting cells and either TR3 peptide 1-13 or TR3 peptide 14-32. ^3H-thymidine incorporation was assessed after 48 hours in culture for an 18 hour period. The T cells responded in this standard T cell proliferation assay to TR3 peptide 1-13 but not to TR3 peptide 14-32. […] This implies that the missing component is a B cell epitope.
as §2

| Substance | detectable anti-TR3 binding antibodies in immune sera of mice immunized with the peptide (C57B1/6J mice) | detectable anti-TR3 binding antibodies in immune sera of mice immunized with the peptide (C57B1/6J mice; listed as T-F variant peptide) | antibody titer against TR3 peptide 1-13 in sera of rats immunized with the peptide (Lewis rats; TR31-13 coated plates) | antibody titer against TR3 peptide 1-32 in sera of rats immunized with the peptide (Lewis rats) | antibody titer against TR3 peptide 1-32 in sera of rats immunized with the peptide (Lewis rats; listed as TR3 peptide) | T cell proliferative response to the peptide in culture (3H-thymidine incorporation) [1] |
| --- | --- | --- | --- | --- | --- | --- |
| QGGFRSPRCDCAGDFHKKIGLFCCRGCPAGHY (Altered TR3 peptide with MHC class II binding motif from amino acids 4 through 12.; listed as Homo sapiens) | made an anti-TR3 response | immunogenic and induced an antibody response |  |  |  |  |
| QGGTRSPRCDCAG (MEQRPRGCAAVAA) [TR3 peptide 1-13] |  |  | No detectable antibody | No detectable antibody | no appreciable antibody titer | very strong T cell responses; also recorded: good T-cell response |
| TR3 peptide 14-32: amino acids 14-32 of the TR-3 peptide, extended peptide shown to be the B cell epitope (ALLLVLLGARAQGGTRSPR) |  |  |  |  |  | not |
